This passage reports Kd and IC50 results from ChEMBL document CHEMBL4376801, “Glycans in drug discovery” (Medchemcomm, 2019).

A word on the Kd: it is the concentration at which binding is half-saturated. Read a high Kd as weaker binding. Usually IC50 stands for the concentration at which inhibition is half-maximal. Low values mean inhibition by little substance, high ones a need for much substance.

In experiment [1] the target is Type 1 fimbrin D-mannose specific adhesin (Escherichia coli K-12, UniProt P08191). The experiment is described as follows: Binding affinity to Escherichia coli full-length FimH by competitive fluorescence polarization assay. Background: Polarisation of emitted light reports the rotation of a fluorescent probe.
Sequence of Type 1 fimbrin D-mannose specific adhesin (P08191 whole entry): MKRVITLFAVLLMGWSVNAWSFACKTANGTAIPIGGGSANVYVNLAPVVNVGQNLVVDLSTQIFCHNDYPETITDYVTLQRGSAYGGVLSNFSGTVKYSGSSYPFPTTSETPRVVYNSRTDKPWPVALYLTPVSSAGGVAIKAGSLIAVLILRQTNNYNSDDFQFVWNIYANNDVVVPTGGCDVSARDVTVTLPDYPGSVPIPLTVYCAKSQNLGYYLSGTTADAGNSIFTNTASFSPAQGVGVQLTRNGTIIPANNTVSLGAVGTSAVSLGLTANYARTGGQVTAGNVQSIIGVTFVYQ
The target in experiment [2] is T1, CD209 antigen (Homo sapiens, UniProt Q9NNX6).
T1 sequence (Q9NNX6 whole entry): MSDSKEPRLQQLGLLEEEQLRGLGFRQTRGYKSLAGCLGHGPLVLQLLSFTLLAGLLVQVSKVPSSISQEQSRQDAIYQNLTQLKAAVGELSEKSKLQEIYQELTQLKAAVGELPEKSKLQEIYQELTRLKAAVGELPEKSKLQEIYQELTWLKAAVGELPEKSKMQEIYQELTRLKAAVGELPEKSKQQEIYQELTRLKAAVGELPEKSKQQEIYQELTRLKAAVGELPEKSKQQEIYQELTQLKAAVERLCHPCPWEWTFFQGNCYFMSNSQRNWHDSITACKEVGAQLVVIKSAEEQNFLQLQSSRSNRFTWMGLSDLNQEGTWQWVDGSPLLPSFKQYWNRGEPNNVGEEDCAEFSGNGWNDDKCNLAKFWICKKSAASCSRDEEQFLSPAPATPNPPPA
The experiment is described as follows: Binding affinity to human DC-SIGN by SPR analysis. Background: SPR reads the build-up and loss of mass on a sensor chip optically.

In turn, `OC[C@H]1O[C@H](Oc2ccc(-c3ccccc3)cc2)[C@@H](O)[C@@H](O)[C@@H]1O` returned a Kd in experiment [1] of 1.1 µM.

Molecule `N#Cc1c(F)c(F)c(-c2ccc(O[C@H]3O[C@H](CO)[C@@H](O)[C@H](O)[C@@H]3O)c(Cl)c2)c(F)c1F` gave a Kd in experiment [1] of 0.0221 µM.

In experiment [2], `COC(=O)[C@H]1C[C@H](OCCN=[N+]=[N-])[C@@H](O[C@H]2O[C@H](CN)[C@@H](O)[C@H](O)[C@@H]2O)C[C@@H]1C(=O)OC` had an IC50 of 481 µM.

Regarding `[N-]=[N+]=NCCO[C@H]1C[C@H](C(=O)OCc2ccc(CN)cc2)[C@@H](C(=O)OCc2ccc(CN)cc2)C[C@@H]1O[C@H]1O[C@H](CN)[C@@H](O)[C@H](O)[C@@H]1O`, the half-maximal inhibitory concentration (IC50) in experiment [2] was found to be 254 µM.
